Data taken from ChEMBL document CHEMBL1629651, “A novel insertion mutation in Streptomyces coelicolor ribosomal S12 protein results in paromomycin resistance and antibiotic overproduction” (2009).
Values after ≈ are worked out from the molar mass of the structure shown. Active and inactive are the calls of the source. The rule behind the calls is not given here.

What was measured:
Streptomyces coelicolor [1] = experiment: Antimicrobial activity against paromomycin-resistant Streptomyces coelicolor SP1 harboring rpsL A262G and C271T mutant gene after 48 hrs; type: functional
Streptomyces coelicolor [2] = experiment: Antimicrobial activity against paromomycin-resistant Streptomyces coelicolor SP2 harboring rpsL K88E mutant gene and inserted glycine at position 92 of the gene after 48 hrs; type: functional
Streptomyces coelicolor [3] = experiment: Antimicrobial activity against paromomycin-resistant Streptomyces coelicolor 92G harboring rpsL gene with inserted glycine at position 92 after 48 hrs; type: functional
Streptomyces coelicolor [4] = experiment: Antimicrobial activity against Streptomyces coelicolor 1147 after 48 hrs; type: functional
Streptomyces coelicolor [5] = experiment: Antimicrobial activity against paromomycin-resistant Streptomyces coelicolor KO-347 harboring rpsl P91S mutant gene after 48 hrs; type: functional
Streptomyces coelicolor [6] = experiment: Antimicrobial activity against streptomycin-resistant Streptomyces coelicolor KO-178 harboring rpsL K88E mutant gene after 48 hrs; type: functional
[7] = target: T1, Small ribosomal subunit protein uS12 (Streptomyces coelicolor (strain ATCC BAA-471 / A3(2) / M145)) (UniProt P0A4A3); experiment: Binding affinity to Streptomyces coelicolor 1147 30S ribosomal protein S12 assessed as inhibition of protein synthesis at 0.2 ug/ml by fluorescence assay
T1 sequence (whole entry): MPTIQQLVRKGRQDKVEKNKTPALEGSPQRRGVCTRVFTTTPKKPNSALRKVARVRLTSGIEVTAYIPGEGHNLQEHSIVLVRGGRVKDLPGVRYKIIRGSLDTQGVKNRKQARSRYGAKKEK

Streptomyces coelicolor [8] = experiment: Binding affinity to Streptomyces coelicolor KO-178 30S ribosomal protein S12 K88E mutant assessed as inhibition of protein synthesis at 0.2 ug/ml by fluorescence assay
Streptomyces coelicolor [9] = experiment: Binding affinity to Streptomyces coelicolor KO-347 30S ribosomal ptotein S12 GI92 mutant assessed as inhibition of protein synthesis at 0.2 ug/ml by fluorescence assay
[10] = Streptomyces coelicolor, 1147, 48 h

NC[C@@H]1O[C@H](O[C@H]2[C@@H](O)[C@H](O[C@@H]3[C@@H](O)[C@H](N)C[C@H](N)[C@H]3O[C@H]3O[C@H](CN)[C@@H](O)[C@H](O)[C@H]3N)O[C@@H]2CO)[C@H](N)[C@@H](O)[C@@H]1O [FRAMYCETIN]
MIC (Streptomyces coelicolor [1]; SP1, 48 h): 0.2 µg/mL (≈ 0.325 µM)
MIC (Streptomyces coelicolor [2]; SP2, 48 h): 0.2 µg/mL (≈ 0.325 µM)
MIC (Streptomyces coelicolor [3]): 0.5 µg/mL (≈ 0.813 µM)
MIC (Streptomyces coelicolor [4]; [10]): 0.3 µg/mL (≈ 0.488 µM)
MIC (Streptomyces coelicolor [5]; KO-347, 48 h): 0.5 µg/mL (≈ 0.813 µM)
MIC (Streptomyces coelicolor [6]; KO-178, 48 h): 0.8 µg/mL (≈ 1.3 µM)

CC(=O)O[C@H]1C[C@@]2(C)[C@@H](C[C@@H](O)[C@H]3[C@@]4(C)CC[C@@H](O)[C@@H](C)[C@@H]4CC[C@@]32C)/C1=C(\CCC=C(C)C)C(=O)O [FUSIDIC ACID]
MIC (Streptomyces coelicolor [1]; SP1, 48 h): 20 µg/mL (≈ 38.7 µM)
MIC (Streptomyces coelicolor [2]; SP2, 48 h): 20 µg/mL (≈ 38.7 µM)
MIC (Streptomyces coelicolor [3]): 50 µg/mL (≈ 96.8 µM)
MIC (Streptomyces coelicolor [4]; [10]): 50 µg/mL (≈ 96.8 µM)
MIC (Streptomyces coelicolor [5]; KO-347, 48 h): 50 µg/mL (≈ 96.8 µM)
MIC (Streptomyces coelicolor [6]; KO-178, 48 h): 50 µg/mL (≈ 96.8 µM)

CN[C@@H]1[C@@H](O)[C@@H](O[C@@H]2[C@@H](O)[C@H](O[C@H]3O[C@H]([C@@H](C)O)[C@@H](O)[C@H](O)[C@H]3N)[C@@H](N)C[C@H]2N)OC[C@]1(C)O [GENETICIN]
MIC (Streptomyces coelicolor [1]; SP1, 48 h): 0.5 µg/mL (≈ 1.01 µM)
MIC (Streptomyces coelicolor [2]; SP2, 48 h): 0.5 µg/mL (≈ 1.01 µM)
MIC (Streptomyces coelicolor [3]): 1 µg/mL (≈ 2.01 µM)
MIC (Streptomyces coelicolor [4]; [10]): 0.3 µg/mL (≈ 0.604 µM)
MIC (Streptomyces coelicolor [5]; KO-347, 48 h): 0.3 µg/mL (≈ 0.604 µM)
MIC (Streptomyces coelicolor [6]; KO-178, 48 h): 0.3 µg/mL (≈ 0.604 µM)

NC[C@H]1O[C@H](O[C@H]2[C@H](O)[C@@H](O[C@H]3O[C@H](CO)[C@@H](O)[C@H](N)[C@H]3O)[C@H](N)C[C@@H]2N)[C@H](O)[C@@H](O)[C@@H]1O [KANAMYCIN]
MIC (Streptomyces coelicolor [1]; SP1, 48 h): 0.5 µg/mL (≈ 1.03 µM)
MIC (Streptomyces coelicolor [2]; SP2, 48 h): 0.5 µg/mL (≈ 1.03 µM)
MIC (Streptomyces coelicolor [3]): 1 µg/mL (≈ 2.06 µM)
MIC (Streptomyces coelicolor [4]; [10]): 0.8 µg/mL (≈ 1.65 µM)
MIC (Streptomyces coelicolor [5]; KO-347, 48 h): 0.5 µg/mL (≈ 1.03 µM)
MIC (Streptomyces coelicolor [6]; KO-178, 48 h): 0.8 µg/mL (≈ 1.65 µM)

CCC[C@@H]1C[C@@H](C(=O)N[C@@H]([C@H]2O[C@H](SC)[C@H](O)[C@@H](O)[C@H]2O)[C@@H](C)O)N(C)C1 [LINCOMYCIN]
MIC (Streptomyces coelicolor [1]; SP1, 48 h): 40 µg/mL (≈ 98.4 µM)
MIC (Streptomyces coelicolor [2]; SP2, 48 h): 10 µg/mL (≈ 24.6 µM)
MIC (Streptomyces coelicolor [3]): 20 µg/mL (≈ 49.2 µM)
MIC (Streptomyces coelicolor [4]; [10]): 50 µg/mL (≈ 123 µM)
MIC (Streptomyces coelicolor [5]; KO-347, 48 h): 50 µg/mL (≈ 123 µM)
MIC (Streptomyces coelicolor [6]; KO-178, 48 h): 40 µg/mL (≈ 98.4 µM)

NC[C@@H]1O[C@H](O[C@H]2[C@@H](O)[C@H](O[C@@H]3[C@@H](O)[C@H](N)C[C@H](N)[C@H]3O[C@H]3O[C@H](CO)[C@@H](O)[C@H](O)[C@H]3N)O[C@@H]2CO)[C@H](N)[C@@H](O)[C@@H]1O [PAROMOMYCIN]
inhibition [7]: 80%
MIC (Streptomyces coelicolor [1]; SP1, 48 h): 2 µg/mL (≈ 3.25 µM)
MIC (Streptomyces coelicolor [2]; SP2, 48 h): 3 µg/mL (≈ 4.87 µM)
MIC (Streptomyces coelicolor [3]): 2 µg/mL (≈ 3.25 µM)
MIC (Streptomyces coelicolor [4]; [10]): 0.1 µg/mL (≈ 0.162 µM)
inhibition (Streptomyces coelicolor [8]): > 80%
MIC (Streptomyces coelicolor [5]; KO-347, 48 h): 0.8 µg/mL (≈ 1.3 µM)
inhibition (Streptomyces coelicolor [9]): inactive
MIC (Streptomyces coelicolor [6]; KO-178, 48 h): 0.3 µg/mL (≈ 0.487 µM)

CN[C@@H]1[C@H](O[C@H]2[C@H](O[C@H]3[C@H](O)[C@@H](O)[C@H](N=C(N)N)[C@@H](O)[C@@H]3N=C(N)N)O[C@@H](C)[C@]2(O)C=O)O[C@@H](CO)[C@H](O)[C@H]1O [STREPTOMYCIN]
MIC (Streptomyces coelicolor [1]; SP1, 48 h): 200 µg/mL (≈ 344 µM)
MIC (Streptomyces coelicolor [2]; SP2, 48 h): > 200 µg/mL
MIC (Streptomyces coelicolor [3]): 20 µg/mL (≈ 34.4 µM)
MIC (Streptomyces coelicolor [4]; [10]): 1 µg/mL (≈ 1.72 µM)
MIC (Streptomyces coelicolor [5]; KO-347, 48 h): 20 µg/mL (≈ 34.4 µM)
MIC (Streptomyces coelicolor [6]; KO-178, 48 h): 100 µg/mL (≈ 172 µM)

CN(C)[C@@H]1C(O)=C(C(N)=O)C(=O)[C@@]2(O)C(O)=C3C(=O)c4c(O)cccc4[C@@](C)(O)[C@H]3C[C@@H]12 [TETRACYCLINE]
MIC (Streptomyces coelicolor [1]; SP1, 48 h): 3 µg/mL (≈ 6.75 µM)
MIC (Streptomyces coelicolor [2]; SP2, 48 h): 3 µg/mL (≈ 6.75 µM)
MIC (Streptomyces coelicolor [3]): 10 µg/mL (≈ 22.5 µM)
MIC (Streptomyces coelicolor [4]; [10]): 10 µg/mL (≈ 22.5 µM)
MIC (Streptomyces coelicolor [5]; KO-347, 48 h): 5 µg/mL (≈ 11.3 µM)
MIC (Streptomyces coelicolor [6]; KO-178, 48 h): 10 µg/mL (≈ 22.5 µM)

GENTAMICIN
MIC (Streptomyces coelicolor [1]): 0.5 µg/mL
MIC (Streptomyces coelicolor [2]): 0.5 µg/mL
MIC (Streptomyces coelicolor [3]): 0.5 µg/mL
MIC (Streptomyces coelicolor [4]): 0.1 µg/mL
MIC (Streptomyces coelicolor [5]): 0.5 µg/mL
MIC (Streptomyces coelicolor [6]): 0.1 µg/mL
